From PubChem BioAssay AID220 (DTP/NCI, 2004)
Values joined by “and” are separate entries in the source; they are usually repeats but may differ in a detail not shown here. Equal values may be shown once. Results filed as inconclusive are left out.

System: CD8F1 mice, subcutaneous mammary adenocarcinoma, T/C%
Experiment: NCI In Vivo Anticancer Drug Screen. Data for tumor model Mammary Adenocarcinoma CD8F1 (subcutaneous) in CD8F1
Settings: higher = larger tumour
In short: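 Compound-treated versus vehicle-treated mice with transplantable tumors; survival or tumor size compared as T/C.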

[1] = endpoint: median tumor weight (est.), dose: 12.5 mg/kg/injection, schedule: Q07DX005 (ip), vehicle: saline with Tween-80
[2] = endpoint: median tumor weight (est.), dose: 50.0 mg/kg/injection, schedule: Q07DX005 (ip), vehicle: saline with Tween-80
[3] = endpoint: median tumor weight change, dose: 125.0 mg/kg/injection, schedule: Q01DX001 (ip), vehicle: saline with Tween-80
[4] = endpoint: median tumor weight change, dose: 500.0 mg/kg/injection, schedule: Q01DX001 (ip), vehicle: saline with Tween-80
[5] = endpoint: median tumor weight change, dose: 250.0 mg/kg/injection, schedule: Q01DX001 (ip), vehicle: saline with Tween-80
[6] = endpoint: median tumor weight change, dose: 62.5 mg/kg/injection, schedule: Q01DX001 (ip), vehicle: saline with Tween-80
[7] = endpoint: median tumor weight (est.), dose: 25.0 mg/kg/injection, schedule: Q07DX005 (ip), vehicle: saline with Tween-80
[8] = endpoint: median tumor weight (est.), dose: 200.0 mg/kg/injection, schedule: Q07DX005 (ip), vehicle: saline with Tween-80

CCCC(=O)Oc1ccc(/C=N/NC(N)=S)nc1
T/C [1]: 279 % of control and 100 % of control
T/C [2]: 83 % of control and 101 % of control
T/C (endpoint: median tumor weight (est.), dose: 400.0 mg/kg/injection, schedule: Q07DX005 (ip), vehicle: saline with Tween-80): 121 % of control

CC(=O)NC(C=O)OCC=O (configuration not stated)
T/C (endpoint: median tumor weight change, dose: 62.5 mg/kg/injection, schedule: Q01DX001 (ip), vehicle: water): 85 % of control
T/C (endpoint: median tumor weight change, dose: 125.0 mg/kg/injection, schedule: Q01DX001 (ip), vehicle: water): 118 % of control
T/C (endpoint: median tumor weight change, dose: 250.0 mg/kg/injection, schedule: Q01DX001 (ip), vehicle: water): 118 % of control
T/C (endpoint: median tumor weight change, dose: 500.0 mg/kg/injection, schedule: Q01DX001 (ip), vehicle: water): 34 % of control

CC1OC1C(=O)C1(O)C(C)C(O)C23OC2(C(O)c2c(O)cccc2C3=O)C1O (configuration not stated)
T/C (endpoint: median tumor weight change, dose: 10.0 mg/kg/injection, schedule: Q01DX001 (ip), vehicle: Klucel (hydroxypropylcellulose) (HPC)): 84 % of control and 100 % of control and 107 % of control
T/C (endpoint: median tumor weight change, dose: 40.0 mg/kg/injection, schedule: Q01DX001 (ip), vehicle: Klucel (hydroxypropylcellulose) (HPC)): 66 % of control and 87 % of control

CC1=CC(=NN=c2cc(C)n([O-])c(C)c2)C=C(C)[N+]1=O
T/C (endpoint: median tumor weight change, dose: 100.0 mg/kg/injection, schedule: Q01DX001 (ip), vehicle: suspension in saline): 76 % of control
T/C [3]: 118 % of control
T/C (endpoint: median tumor weight change, dose: 125.0 mg/kg/injection, schedule: Q01DX001 (ip), vehicle: saline): 55 % of control
T/C (endpoint: median tumor weight change, dose: 200.0 mg/kg/injection, schedule: Q01DX001 (ip), vehicle: suspension in saline): 85 % of control
T/C (endpoint: median tumor weight change, dose: 250.0 mg/kg/injection, schedule: Q01DX001 (ip), vehicle: saline): 117 % of control
T/C (endpoint: median tumor weight change, dose: 400.0 mg/kg/injection, schedule: Q01DX001 (ip), vehicle: suspension in saline): 80 % of control
T/C [4]: 94 % of control
T/C (endpoint: median tumor weight change, dose: 500.0 mg/kg/injection, schedule: Q01DX001 (ip), vehicle: saline): 100 % of control
T/C (endpoint: median tumor weight change, dose: 800.0 mg/kg/injection, schedule: Q01DX001 (ip), vehicle: suspension in saline): 40 % of control
T/C (endpoint: median tumor weight change, dose: 1000.0 mg/kg/injection, schedule: Q01DX001 (ip), vehicle: saline): 17 % of control

COc1cc([C@@H]2c3cc4c(cc3[C@@H](OC3OC5COC(C)OC5C(O)C3O)[C@H]3COC(=O)[C@H]23)OCO4)cc(OC)c1O (some centres not stated)
T/C (endpoint: median tumor weight (est.), dose: 2.0 mg/kg/injection, schedule: Q07DX005 (ip), vehicle: saline): 74 % of control
T/C (endpoint: median tumor weight (est.), dose: 4.0 mg/kg/injection, schedule: Q07DX005 (ip), vehicle: saline): 110 % of control
T/C (endpoint: median tumor weight (est.), dose: 8.0 mg/kg/injection, schedule: Q07DX005 (ip), vehicle: saline): 51 % of control
T/C (endpoint: median tumor weight (est.), dose: 16.0 mg/kg/injection, schedule: Q07DX005 (ip), vehicle: clinical formulation): 38 % of control
T/C (endpoint: median tumor weight (est.), dose: 16.0 mg/kg/injection, schedule: Q07DX005 (ip), vehicle: saline): 25 % of control and 48 % of control
T/C (endpoint: median tumor weight (est.), dose: 32.0 mg/kg/injection, schedule: Q07DX005 (ip), vehicle: clinical formulation): 11 % of control
T/C (endpoint: median tumor weight (est.), dose: 32.0 mg/kg/injection, schedule: Q07DX005 (ip), vehicle: saline): 8 % of control and 9 % of control

NC(CSC(c1ccccc1)(c1ccccc1)c1ccccc1)C(=O)O (configuration not stated)
T/C (endpoint: median tumor weight (est.), dose: 32.0 mg/kg/injection, schedule: Q07DX005 (ip), vehicle: Klucel (hydroxypropylcellulose) (HPC)): 101 % of control
T/C (endpoint: median tumor weight (est.), dose: 64.0 mg/kg/injection, schedule: Q07DX005 (ip), vehicle: Klucel (hydroxypropylcellulose) (HPC)): 71 % of control
T/C (endpoint: median tumor weight (est.), dose: 128.0 mg/kg/injection, schedule: Q07DX005 (ip), vehicle: Klucel (hydroxypropylcellulose) (HPC)): 74 % of control

C[n+]1ccc2cc(N)c3c4ccccc4sc3c2c1
T/C (endpoint: median tumor weight (est.), dose: 1.56 mg/kg/injection, schedule: Q07DX004 (ip), vehicle: saline with Tween-80): 83 % of control
T/C (endpoint: median tumor weight (est.), dose: 3.12 mg/kg/injection, schedule: Q07DX004 (ip), vehicle: saline with Tween-80): 121 % of control
T/C (endpoint: median tumor weight (est.), dose: 6.25 mg/kg/injection, schedule: Q07DX004 (ip), vehicle: saline with Tween-80): 65 % of control
T/C (endpoint: median tumor weight (est.), dose: 12.5 mg/kg/injection, schedule: Q07DX004 (ip), vehicle: saline with Tween-80): 105 % of control
T/C (endpoint: median tumor weight (est.), dose: 25.0 mg/kg/injection, schedule: Q07DX004 (ip), vehicle: saline with Tween-80): 110 % of control

c1cc(-c2cc3ccc(C4=NCCN4)cc3[nH]2)ccc1C1=NCCN1
T/C (endpoint: median tumor weight (est.), dose: 6.25 mg/kg/injection, schedule: Q07DX005 (ip), vehicle: suspension in saline): 103 % of control
T/C (endpoint: median tumor weight (est.), dose: 12.5 mg/kg/injection, schedule: Q07DX005 (ip), vehicle: suspension in saline): 60 % of control
T/C (endpoint: median tumor weight (est.), dose: 25.0 mg/kg/injection, schedule: Q07DX005 (ip), vehicle: saline): 45 % of control
T/C (endpoint: median tumor weight (est.), dose: 25.0 mg/kg/injection, schedule: Q07DX005 (ip), vehicle: suspension in saline): 164 % of control
T/C (endpoint: median tumor weight change, dose: 62.0 mg/kg/injection, schedule: Q01DX001 (ip), vehicle: suspension in saline): 99 % of control

CC(Oc1ccccc1-c1ccccc1)C(=O)N(C)C (configuration not stated)
T/C [3]: 70 % of control
T/C [5]: 89 % of control
T/C [4]: 95 % of control

CC(=O)Oc1c[nH]c(=O)[nH]c1=O
T/C [3]: 62 % of control
T/C [5]: 84 % of control
T/C [4]: 32 % of control
T/C (endpoint: median tumor weight change, dose: 1000.0 mg/kg/injection, schedule: Q01DX001 (ip), vehicle: saline with Tween-80): 32 % of control

O=c1[nH]c(=O)n(C2CC(O)C(CO)O2)cc1I (configuration not stated)
T/C (endpoint: median tumor weight (est.), dose: 182.87 mg/kg/injection, schedule: Q07DX005 (ip), vehicle: saline with Tween-80): 99 % of control
T/C (endpoint: median tumor weight (est.), dose: 365.75 mg/kg/injection, schedule: Q07DX005 (ip), vehicle: saline with Tween-80): 76 % of control
T/C (endpoint: median tumor weight (est.), dose: 731.5 mg/kg/injection, schedule: Q07DX005 (ip), vehicle: saline with Tween-80): 91 % of control
T/C (endpoint: median tumor weight (est.), dose: 800.0 mg/kg/injection, schedule: Q07DX005 (ip), vehicle: saline with Tween-80): 45 % of control and 50 % of control
T/C (endpoint: median tumor weight (est.), dose: 1463.0 mg/kg/injection, schedule: Q07DX005 (ip), vehicle: saline with Tween-80): 50 % of control
T/C (endpoint: median tumor weight (est.), dose: 1600.0 mg/kg/injection, schedule: Q07DX005 (ip), vehicle: saline with Tween-80): 46 % of control and 53 % of control
T/C (endpoint: median tumor weight (est.), dose: 3200.0 mg/kg/injection, schedule: Q07DX005 (ip), vehicle: saline with Tween-80): 7 % of control and 10 % of control

CC1(C)CC2(C)OC2C2(C1)N=NC(=Nc1ccccc1)O2 (configuration not stated)
T/C [3]: 78 % of control
T/C [5]: 64 % of control
T/C [4]: 41 % of control

CCCCOCN(COCCCC)C12CC3CC(CC(C3)C1)C2
T/C [6]: 122 % of control
T/C [3]: 79 % of control
T/C [5]: 61 % of control

O=C1NC(=O)/C(=C/C=C/c2ccccc2)S1
T/C [1]: 66 % of control
T/C [7]: 100 % of control
T/C (endpoint: median tumor weight (est.), dose: 100.0 mg/kg/injection, schedule: Q07DX005 (ip), vehicle: saline with Tween-80): 81 % of control
T/C [8]: 101 % of control

Cc1cc(N(CCOS(C)(=O)=O)CCOS(C)(=O)=O)ccc1C=Nc1ccc(-c2nc(Cc3ccccc3)sc2C)cc1
T/C (endpoint: median tumor weight (est.), dose: 12.5 mg/kg/injection, schedule: Q07DX005 (ip), vehicle: Klucel (hydroxypropylcellulose) (HPC)): 18 % of control
T/C (endpoint: median tumor weight (est.), dose: 100.0 mg/kg/injection, schedule: Q07DX005 (ip), vehicle: Klucel (hydroxypropylcellulose) (HPC)): 4 % of control and 9 % of control
T/C (endpoint: median tumor weight (est.), dose: 200.0 mg/kg/injection, schedule: Q07DX005 (ip), vehicle: Klucel (hydroxypropylcellulose) (HPC)): 10 % of control

O=C(CO)c1ccc([N+](=O)[O-])cc1
T/C (endpoint: median tumor weight (est.), dose: 6.25 mg/kg/injection, schedule: Q07DX005 (ip), vehicle: saline with Tween-80): 117 % of control
T/C [1]: 112 % of control
T/C [7]: 91 % of control
T/C [2]: 118 % of control
T/C [8]: 86 % of control

Cc1ccc(NCCN(C)C)c2c(=O)c3cc(O)ccc3sc12
T/C (endpoint: median tumor weight change, dose: 250.0 mg/kg/injection, schedule: Q01DX001 (ip), vehicle: Klucel (hydroxypropylcellulose) (HPC)): -8 % of control and 15 % of control
T/C (endpoint: median tumor weight change, dose: 500.0 mg/kg/injection, schedule: Q01DX001 (ip), vehicle: Klucel (hydroxypropylcellulose) (HPC)): -6 % of control

C[Si](C)(C)O/C=C1\CCCCC1=O
T/C (endpoint: median tumor weight change, dose: 62.0 mg/kg/injection, schedule: Q01DX001 (ip), vehicle: saline with Tween-80): 70 % of control
T/C [6]: 119 % of control
T/C [3]: 54 % of control and 69 % of control
T/C [5]: 93 % of control
